Test system: NCI-H23 complex spheroids with HUVEC/MSC, viability
Experiment: Anticancer human tumor NCI-H23 cell line growth inhibition [RAS];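 further: spheroids exposed to compound for 7 days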
Settings: for IC50: curve of first compound; for viability, T/C: stronger effect = lower value; active means viability on the fitted dose curve at most 10% of control; inactive means the rest
Source text: RAS pathway inhibitors in Combinations in Complex Spheroids
A high-throughput screen of multi-cell type tumor spheroids was designed to identify active combinations of RAS pathway inhibitors and targeted small molecules. Complex spheroids include a stromal component modeled by human endothelial cells (HUVEC) and fibroblasts modeled by human mesenchymal stem cells (MSCs). The concentration ranges selected for each drug and investigational agent were based upon clinically achievable concentrations if the clinical Cmax of the agent was known.
Compounds. The drugs and investigational agents: abemaciclib (NSC768073), cobimetinib (NSC768068), divarasib (GDC6063, NSC841802), docetaxel (NSC628503), GDC-1971 (RLY-1971, NSC841576), gemcitabine (NSC613327), inavolisib (NSC800729), ipatasertib (NSC767898), KB-0742 (NSC834161), MRTX-1133 (NSC836407), osimertinib (NSC779217), RMC-4630 (NSC839698), RMC-6236 (NSC851965), RMC-6291 (NSC852671), Ro-3306 (NSC812927), sapanisertib (NSC764658), SN-38 (NSC673596), staurosporine (NSC755774), SY5609 (NSC837396), and tovorafenib (DAY101, NSC766906), were obtained from the National Cancer Institute (NCI) Developmental Therapeutics Program Chemical Repository. The FDA-approved anticancer drug set is available from the NCI Developmental Therapeutics Program. […] The stock solutions were prepared in dimethyl sulfoxide (DMSO, Sigma-Aldrich, St. Louis, MO, cat. D2650) at 800-fold the tested concentration and stored at -70 degrees C prior to their use. All drugs and investigational agents were tested over a range starting from a high concentration at or near the clinical Cmax and decreasing in half-log increments. If the clinical Cmax for an agent had not been determined, the highest concentration tested was 10 microM.
Cell Culture. All cells were maintained in an incubator at 37 degrees C and 5% CO2 with 95% humidity. The PDC lines were cultured according to standard operating procedures established by the NCI PDMR. All PDCs were thawed and cultured in Matrigel-coated flasks prepared with a working solution of 1X Ham's F-12 nutrient mix, without supplementation (Invitrogen, Waltham, MA, cat. 11765054), 100 U/mL penicillin-streptomycin (Invitrogen, cat. 15140122), and 2.5% Matrigel (Corning Inc., Corning, NY, cat. 354248) for the first three passages. The 362531-283-R-J2-PDC and 782815-120-R-J1-PDC lines were cultured in 6C/Colon 1B media, which includes advanced DMEM/F-12 (Thermo Fisher Scientific, cat. 12634028), 10 mM HEPES (Thermo Fisher Scientific, cat. 15630080), 1X GlutaMAX supplement (Thermo Fisher Scientific, cat. 35050061), 0.1 mg/mL primocin (InvivoGen, San Diego, CA, cat. ant-pm-2), 10% defined fetal bovine serum, heat inactivated (HyClone Laboratories Inc., Logan, UT, cat. SH30070.03HI), 50% L-WRN conditioned media (ATCC, cat. CRL-3276), 1.25 mM N-Acetyl-L-cysteine (Sigma-Aldrich, cat. A9165), 10 mM nicotinamide (Sigma-Aldrich, cat. N0636), 1X B-27 supplement (Thermo Fisher Scientific, cat. 17504044), 1X N-2 supplement (Thermo Fisher Scientific, cat. 17502048), 50 ng/mL human EGF (Thermo Fisher Scientific, cat. PHG0311), and 10 microM Y-27632 dihydrochloride (Tocris Bioscience, cat. 1254). The K12877-001-R-J1-PDC line was cultured in 6I media, which includes all 6C/Colon 1B media plus 10 ng/mL human FGF-10 (PeproTech, cat. 100-26), 1 ng/mL human FGF-2 (PeproTech, cat. 100-18B), 1 µM prostaglandin E2 (Tocris Bioscience, cat. 2296), […] hydrocortisone (Sigma-Aldrich, cat. H4001), and […] bovine insulin (Sigma-Aldrich, cat. I6634). The K86415-001-R-J1-PDC line was cultured in 6D media, which includes all 6C/Colon 1B media components minus the L-WRN conditioned media. The 485176-168-R4-J1-PDC was cultured in PANC media, which includes all 6C/Colon 1B media plus 100 ng/mL human FGF-10 (PeproTech, cat. 100-26), 500 nM SB-431542 (Selleckchem, cat. S1067), and 10 nM gastrin (Tocris Bioscience, cat. 3006). […]

CC1(C)CCC(Nc2ncc(C(F)(F)F)c(-c3c[nH]c4c(P(C)(C)=O)c(C#N)ccc34)n2)CN1 (configuration not stated) + C#Cc1c(F)ccc2cc(O)cc(-c3ncc4c(N5CC6CCC(C5)N6)nc(OCC56CCCN5CC(F)C6)nc4c3F)c12
inactive: viability, T/C (second compound 0.0316 µM, first compound 0.000949 µM) 77.4% | viability, T/C (second compound 0.0316 µM, first compound 0.003 µM) 95.5% | viability, T/C (second compound 0.0316 µM, first compound 0.00949 µM) 64.1% | viability, T/C (second compound 0.0316 µM, first compound 0.03 µM) 46.9% | viability, T/C (second compound 0.0316 µM, first compound 0.0949 µM) 42.9% | viability, T/C (second compound 0.0316 µM, first compound 0.3 µM) 53% | viability, T/C (second compound 0.1 µM, first compound 0.000949 µM) 105% | viability, T/C (second compound 0.1 µM, first compound 0.003 µM) 87.7% | viability, T/C (second compound 0.1 µM, first compound 0.00949 µM) 60.6% | viability, T/C (second compound 0.1 µM, first compound 0.03 µM) 46.7% | viability, T/C (second compound 0.1 µM, first compound 0.0949 µM) 44.5% | viability, T/C (second compound 0.1 µM, first compound 0.3 µM) 59.2% | viability, T/C (second compound 0.316 µM, first compound 0.000949 µM) 82.9% | viability, T/C (second compound 0.316 µM, first compound 0.003 µM) 75.6% | viability, T/C (second compound 0.316 µM, first compound 0.00949 µM) 52.2% | viability, T/C (second compound 0.316 µM, first compound 0.03 µM) 44.8% | viability, T/C (second compound 0.316 µM, first compound 0.0949 µM) 35.6% | viability, T/C (second compound 0.316 µM, first compound 0.3 µM) 40.8% | viability, T/C (second compound 1 µM, first compound 0.000949 µM) 83.2% | viability, T/C (second compound 1 µM, first compound 0.003 µM) 60.8% | viability, T/C (second compound 1 µM, first compound 0.00949 µM) 42.7% | viability, T/C (second compound 1 µM, first compound 0.03 µM) 38.2% | viability, T/C (second compound 1 µM, first compound 0.0949 µM) 39% | viability, T/C (second compound 1 µM, first compound 0.3 µM) 36.8% | viability, T/C (second compound 3.16 µM, first compound 0.000949 µM) 45% | viability, T/C (second compound 3.16 µM, first compound 0.003 µM) 37.9% | viability, T/C (second compound 3.16 µM, first compound 0.00949 µM) 33% | viability, T/C (second compound 3.16 µM, first compound 0.03 µM) 28.4% | viability, T/C (second compound 3.16 µM, first compound 0.0949 µM) 33% | viability, T/C (second compound 3.16 µM, first compound 0.3 µM) 31.4% | viability, T/C (second compound 10 µM, first compound 0.000949 µM) 29.7% | viability, T/C (second compound 10 µM, first compound 0.003 µM) 29.1% | viability, T/C (second compound 10 µM, first compound 0.00949 µM) 25.1% | viability, T/C (second compound 10 µM, first compound 0.03 µM) 21.7% | viability, T/C (second compound 10 µM, first compound 0.0949 µM) 19.3% | viability, T/C (second compound 10 µM, first compound 0.3 µM) 18.4%
> 300 nM: IC50 (second compound 0.1 µM)
25.3 nM: IC50 (second compound 0.0316 µM)
5.95 nM: IC50 (second compound 1 µM)
< 0.949 nM: IC50 (second compound 3.16 µM) | IC50 (second compound 10 µM)
13.3 nM: IC50 (second compound 0.316 µM)

Reference: PubChem BioAssay AID2060885 (Molecular Pharmacology Branch, DTP, NCI, 2025)
